Assay results as given in patent USH1923H, “Herbicidal (oxaalkyl) phenyl-substituted heterocycles” (FMC Corporation, priority 1998, dated 2000).

What was measured:
[1] = system: soybean; test: preemergence herbicidal activity on soybean; assay type: in vivo, Glycine max var. Winchester; settings: Glycine max, pre-emergence, 0.3 Kg/Ha, after 12-17 days, read-out: PREEMERGENCE HERBICIDAL ACTIVITY (% CONTROL) SOY
Description: (§1) The (oxaalkyl)phenyl-substituted heterocycles of this invention were tested for pre- and postemergence herbicidal activity using a variety of crops and weeds. The test plants included soybean (Glycine max var. Winchester),field corn (Zea mays var. Pioneer 3732), wheat (Triticum aestivum var. Lew), morningglory (Ipomea lacunosa or Ipomea hederacea), […] (Abutilon theophrasti), green foxtail (Setaria viridis), Johnsongrass (Sorghum halepense), blackgrass (Aloepecurus myosuroides), common chickweed (Stellaria media), and common cocklebur (Xanthium strumarium L.).
(§2) For preemergence testing, two disposable fiber flats (8 cm×15 cm×25 cm) for each rate of application of each candidate herbicide were filled to an approximate depth of 6.5 cm with steam-sterilized sandy loam soil. The soil was leveled and impressed with a template to provide five evenly spaced furrows 13 cm long and 0.5 cm deep in each flat. Seeds of soybean, wheat, corn, green foxtail, and johnsongrass were planted in the furrows of the first flat, and seeds of velvetleaf, morningglory, common chickweed, cocklebur, and blackgrass were planted in the furrows of the second flat. The five-row template was employed to firmly press the seeds into place. A topping soil of equal portions of sand and sandy loam soil was placed uniformly on top of each flat to a depth of approximately 0.5 cm. Flats for postemergence testing were prepared in the same manner except that they were planted 9-14 days prior to the preemergence flats and were placed in a greenhouse and watered, thus allowing the seeds to germinate and the foliage to develop.
(§3) In both pre- and postemergence tests, a stock solution of the candidate herbicide was prepared by dissolving 0.27 g of the compound in 20 mL of water/acetone (50/50) containing 0.5% v/v sorbitan monolaurate. For an application rate of 3000 g/ha of herbicide a 10 mL portion of the stock solution was diluted with water/acetone (50/50) to 45 mL.
(§4) The preemergence flats were initially subjected to a light water spray. The four flats were placed two by two along a conveyor belt (i.e., the two preemergence followed by the two postemergence flats). The conveyor belt fed under a spray nozzle mounted about ten inches above the postemergent foliage. The preemergent flats were elevated on the belt so that the soil surface was at the same level below the spray nozzle as the foliage canopy of the postemergent plants. The spray of herbicidal solution was commenced and once stabilized, the flats were passed under the spray at a speed to receive a coverage equivalent of 1000 L/ha. At this coverage the application rates are those shown in the above table for the individual herbicidal solutions. The preemergence flats were watered immediately thereafter, placed in the greenhouse and watered regularly at the soil surface. The postemergence flats were immediately placed in the green-house and not watered until 24 hours after treatment with the test solution. Thereafter they were regularly watered at ground level. After 12-17 days the plants were examined and the phytotoxicity data were recorded.
(§5) Phytotoxicity data were taken as percent control. Percent control was by a method similar to the 0 to 1 00 rating system disclosed in "Research Methods in Weed Science," 2nd ed., B. Truelove, Ed.; Southern Weed Science Society; Auburn University, Auburn, Ala., 1977.

[2] = system: wheat; test: preemergence herbicidal activity on wheat; assay type: in vivo, Triticum aestivum var. Lew; settings: Triticum aestivum, pre-emergence, 0.3 Kg/Ha, after 12-17 days, read-out: PREEMERGENCE HERBICIDAL ACTIVITY (% CONTROL) WHT
Description: as §1, §2, §3, §4, §5

[3] = system: corn; test: preemergence herbicidal activity on corn; assay type: in vivo, Zea mays var. Pioneer 3732; settings: Zea mays, pre-emergence, 0.3 Kg/Ha, after 12-17 days, read-out: PREEMERGENCE HERBICIDAL ACTIVITY (% CONTROL) CRN
Description: as §1, §2, §3, §4, §5

[4] = system: velvetleaf; test: preemergence herbicidal activity on velvetleaf; assay type: in vivo; settings: Abutilon theophrasti, pre-emergence, 0.3 Kg/Ha, after 12-17 days, read-out: PREEMERGENCE HERBICIDAL ACTIVITY (% CONTROL) ABUTH
Description: as §1, §2, §3, §4, §5

[5] = system: morningglory; test: preemergence herbicidal activity on morningglory; assay type: in vivo, Ipomea lacunosa or Ipomea hederacea; settings: Ipomoea, pre-emergence, 0.3 Kg/Ha, after 12-17 days, read-out: PREEMERGENCE HERBICIDAL ACTIVITY (% CONTROL) IPOSS
Description: as §1, §2, §3, §4, §5

[6] = system: chickweed; test: preemergence herbicidal activity on chickweed; assay type: in vivo; settings: Stellaria media, pre-emergence, 0.3 Kg/Ha, after 12-17 days, read-out: PREEMERGENCE HERBICIDAL ACTIVITY (% CONTROL) STEME
Description: as §1, §2, §3, §4, §5

[7] = system: cocklebur; test: preemergence herbicidal activity on cocklebur; assay type: in vivo, Xanthium strumarium L.; settings: Xanthium strumarium, pre-emergence, 0.3 Kg/Ha, after 12-17 days, read-out: PREEMERGENCE HERBICIDAL ACTIVITY (% CONTROL) XANPE
Description: as §1, §2, §3, §4, §5

[8] = system: blackgrass; test: preemergence herbicidal activity on blackgrass; assay type: in vivo, Aloepecurus myosuroides; settings: Alopecurus myosuroides, pre-emergence, 0.3 Kg/Ha, after 12-17 days, read-out: PREEMERGENCE HERBICIDAL ACTIVITY (% CONTROL) ALOMY
Description: as §1, §2, §3, §4, §5

[9] = system: green foxtail; test: preemergence herbicidal activity on green foxtail; assay type: in vivo; settings: Setaria viridis, pre-emergence, 0.3 Kg/Ha, after 12-17 days, read-out: PREEMERGENCE HERBICIDAL ACTIVITY (% CONTROL) SETVI
Description: as §1, §2, §3, §4, §5

[10] = system: johnsongrass; test: preemergence herbicidal activity on johnsongrass; assay type: in vivo; settings: Sorghum halepense, pre-emergence, 0.3 Kg/Ha, after 12-17 days, read-out: PREEMERGENCE HERBICIDAL ACTIVITY (% CONTROL) SORHA
Description: as §1, §2, §3, §4, §5

[11] = system: soybean; test: postemergence herbicidal activity on soybean; assay type: in vivo, Glycine max var. Winchester; settings: Glycine max, post-emergence, 0.3 Kg/Ha, after 12-17 days, read-out: POSTEMERGENCE HERBICIDAL ACTIVITY (% CONTROL) SOY
Description: as §1, §2, §3, §4, §5

[12] = system: wheat; test: postemergence herbicidal activity on wheat; assay type: in vivo, Triticum aestivum var. Lew; settings: Triticum aestivum, post-emergence, 0.3 Kg/Ha, after 12-17 days, read-out: POSTEMERGENCE HERBICIDAL ACTIVITY (% CONTROL) WHT
Description: as §1, §2, §3, §4, §5

[13] = system: corn; test: postemergence herbicidal activity on corn; assay type: in vivo, Zea mays var. Pioneer 3732; settings: Zea mays, post-emergence, 0.3 Kg/Ha, after 12-17 days, read-out: POSTEMERGENCE HERBICIDAL ACTIVITY (% CONTROL) CRN
Description: as §1, §2, §3, §4, §5

[14] = system: velvetleaf; test: postemergence herbicidal activity on velvetleaf; assay type: in vivo; settings: Abutilon theophrasti, post-emergence, 0.3 Kg/Ha, after 12-17 days, read-out: POSTEMERGENCE HERBICIDAL ACTIVITY (% CONTROL) ABUTH
Description: as §1, §2, §3, §4, §5

[15] = system: morningglory; test: postemergence herbicidal activity on morningglory; assay type: in vivo, Ipomea lacunosa or Ipomea hederacea; settings: Ipomoea, post-emergence, 0.3 Kg/Ha, after 12-17 days, read-out: POSTEMERGENCE HERBICIDAL ACTIVITY (% CONTROL) IPOSS
Description: as §1, §2, §3, §4, §5

[16] = system: chickweed; test: postemergence herbicidal activity on chickweed; assay type: in vivo; settings: Stellaria media, post-emergence, 0.3 Kg/Ha, after 12-17 days, read-out: POSTEMERGENCE HERBICIDAL ACTIVITY (% CONTROL) STEME
Description: as §1, §2, §3, §4, §5

[17] = system: cocklebur; test: postemergence herbicidal activity on cocklebur; assay type: in vivo, Xanthium strumarium L.; settings: Xanthium strumarium, post-emergence, 0.3 Kg/Ha, after 12-17 days, read-out: POSTEMERGENCE HERBICIDAL ACTIVITY (% CONTROL) XANPE
Description: as §1, §2, §3, §4, §5

[18] = system: blackgrass; test: postemergence herbicidal activity on blackgrass; assay type: in vivo, Aloepecurus myosuroides; settings: Alopecurus myosuroides, post-emergence, 0.3 Kg/Ha, after 12-17 days, read-out: POSTEMERGENCE HERBICIDAL ACTIVITY (% CONTROL) ALOMY
Description: as §1, §2, §3, §4, §5

[19] = system: green foxtail; test: postemergence herbicidal activity on green foxtail; assay type: in vivo; settings: Setaria viridis, post-emergence, 0.3 Kg/Ha, after 12-17 days, read-out: POSTEMERGENCE HERBICIDAL ACTIVITY (% CONTROL) SETVI
Description: as §1, §2, §3, §4, §5

[20] = system: johnsongrass; test: postemergence herbicidal activity on johnsongrass; assay type: in vivo; settings: Sorghum halepense, post-emergence, 0.3 Kg/Ha, after 12-17 days, read-out: POSTEMERGENCE HERBICIDAL ACTIVITY (% CONTROL) SORHA
Description: as §1, §2, §3, §4, §5

**Q.** With `Cc1nn(-c2cc(CC(Cl)C(C)(C)O)c(Cl)cc2F)c(=O)n1C(F)F` (centres unmarked) [Compound 2] as the molecule, how does the activity at 300 g/ha [1] read?
**A.** Its activity at 300 g/ha is 60%.

**Q.** And the activity at 300 g/ha [2]?
**A.** The activity at 300 g/ha was 70%.

**Q.** What about the activity at 300 g/ha [3] of the same molecule?
**A.** The activity at 300 g/ha was 80%.

**Q.** And the activity at 300 g/ha [4]?
**A.** The activity at 300 g/ha was 100%.

**Q.** And the activity at 300 g/ha [5]?
**A.** The activity at 300 g/ha was 100%.

**Q.** What about the activity at 300 g/ha [6] of the same molecule?
**A.** Its activity at 300 g/ha is 90%.

**Q.** What about the activity at 300 g/ha [7] of the same molecule?
**A.** The activity at 300 g/ha was 60%.

**Q.** What about the activity at 300 g/ha [8] of the same molecule?
**A.** Its activity at 300 g/ha is 70%.

**Q.** And the activity at 300 g/ha [9]?
**A.** Its activity at 300 g/ha is 100%.

**Q.** What about the activity at 300 g/ha [10] of the same molecule?
**A.** The activity at 300 g/ha was 90%.

**Q.** And the activity at 300 g/ha [11]?
**A.** The activity at 300 g/ha was 80%.

**Q.** What about the activity at 300 g/ha [12] of the same molecule?
**A.** The activity at 300 g/ha was 60%.

**Q.** And the activity at 300 g/ha [13]?
**A.** Its activity at 300 g/ha is 80%.

**Q.** And the activity at 300 g/ha [14]?
**A.** Its activity at 300 g/ha is 100%.

**Q.** What about the activity at 300 g/ha [15] of the same molecule?
**A.** Its activity at 300 g/ha is 100%.

**Q.** And the activity at 300 g/ha [16]?
**A.** Its activity at 300 g/ha is 70%.

**Q.** What about the activity at 300 g/ha [17] of the same molecule?
**A.** Its activity at 300 g/ha is 55%.

**Q.** And the activity at 300 g/ha [18]?
**A.** Its activity at 300 g/ha is 70%.

**Q.** What about the activity at 300 g/ha [19] of the same molecule?
**A.** Its activity at 300 g/ha is 80%.

**Q.** And the activity at 300 g/ha [20]?
**A.** Its activity at 300 g/ha is 80%.
